Assay results taken from publication PMC6151560, “Antibacterial and Antitubercular Activities of Cinnamylideneacetophenones” (Molecules : A Journal of Synthetic Chemistry and Natural …, 2017).
Converted amounts (≈) assume the structure as drawn. Where two headings read alike, the source gives them in different places.

What was measured:
[1] = system: Mycobacterium tuberculosis H37Rv (ATCC 27294); assay: Antitubercular REMA (Resazurin Microtiter Assay); assay type: cell-based; conditions: Mycobacterium tuberculosis, 168 h, read-out: Mt MIC
[2] = system: Streptococcus sanguinis (ATCC 10557); assay: Antibacterial broth microdilution (MIC/MBC), S. sanguinis; conditions: for MIC: ATCC10557, 24 h; for MBC: ATCC10557, read-out: Ss MBC
[3] = system: Escherichia coli (ATCC 10536); assay: Antibacterial broth microdilution (MIC), E. coli; conditions: ATCC10536, 24 h, read-out: Ec MIC
[4] = system: A549 (human lung adenocarcinoma epithelial cell line, ATCC CCL-185); assay: Cytotoxicity on lung cells (resazurin), A549; assay type: cell-based; conditions: 24 h incubation
[5] = system: Staphylococcus aureus (ATCC 14458); assay: Antibacterial broth microdilution (MIC/MBC), S. aureus; conditions: for MIC: ATCC14458, 24 h
[6] = system: Streptococcus mutans (ATCC 25175); assay: Antibacterial broth microdilution (MIC/MBC), S. mutans; conditions: for MIC: ATCC25175, 24 h; for MBC: ATCC25175, read-out: Sm MBC
[7] = DPPH radical scavenging ability; conditions: at 1600, 800, 400, and 200 µM; DPPH 100 μM, 30 min, 25 °C
Text: The low selectivity of the cinnamylideneacetophenones 3 and 4 can be correlated with their phenolic nature. Studies report the ability of phenolic compounds to act on widespread radical processes shared by eukaryotic and prokaryotic cells. We hypothesized this behavior may be responsible by simultaneous activity toward bacteria and pulmonary cells. Therefore, we evaluated the radical scavenging ability of 3 and 4 using DPPH (2,2-diphenyl-1-picrylhydrazyl) protocol. […] Altogether, low selectivity of 3 and 4 cannot be strongly related to radical processes. Quercetin and gallic acid were used as positive controls due to their phenolic nature and potent radical scavenging ability.
Radical scavenging activity of compounds 3 and 4 was determined using 2,2-diphenyl-1-picrylhydrazyl (DPPH). Aliquots of 10 µL of 3, 4, and positive controls (quercetin and gallic acid) at concentrations 1600, 800, 400, and 200 μM (in EtOH) were individually added in 190 µL DPPH (100 μM). The mixtures were incubated in the dark at 25 °C for 30 min. Remaining DPPH was determined spectroscopically at 490 nm by blanking against absolute ethanol. Radical scavenging ability was expressed by using mean values obtained from triplicates as the percentage of radicals reduced by calculating the following equation: DPPH scavenging % = [1 − (Asample/A) × 100], where A is test absorbance without sample (only EtOH and DPPH) and Asample is test absorbance with compounds.

[8] = Partition coefficient log Po/w by HPLC-PDA (OECD method); conditions: n-octanol/water (from HPLC retention on a C-18 column)
[9] = system: MRC-5 (human lung fibroblast cell line, ATCC CCL-171); assay: Cytotoxicity on lung cells (resazurin), MRC-5; conditions: Homo sapiens, MRC5, read-out: IC50 on pulmonary cells
[10] = Cytotoxicity on lung cells (resazurin), MRC-5; conditions: human, MRC-5 cells (lung fibroblast cell line, ATCC CCL-171)
[11] = system: Pseudomonas aeruginosa (ATCC 15442); assay: Antibacterial broth microdilution (MIC), P. aeruginosa; conditions: ATCC15442, 24 h, read-out: Pa MIC
[12] = physchem
[13] = in vitro; conditions: human
[14] = ATCC14458, read-out: MIC and MBC values

Compound	MBC [2]	MIC [3]	IC50 [4]	MBC [5, 14]	MBC ([5]; ATCC14458, read-out: Sa MBC)	MBC [6]	percentages of DPPH scavenging ability [7]	IC50 [9]	IC50 at 24 h [10]	MIC [11]	other results
O=C(/C=C/C=C/c1ccccc1)c1cccc(O)c1 [Compound 3, (2E,4E)-1-(3-hydroxyphenyl)-5-phenylpenta-2,4-dien-1-one]	156 µM (≈ 39 µg/mL)	> 500 µM	96.7 µM	77.9 to 312 µM (≈ 19.5 to 78.1 µg/mL)	156 µM (≈ 39 µg/mL)	156 µM (≈ 39 µg/mL)	below 8%	46.3 to 96.7 µM	46.3 µM	> 500 µM	MIC ([1]; M. tuberculosis H37Rv, REMA, 7 days, lowest concentration giving 90% inhibition of growth): 88.8 µM (≈ 22.2 µg/mL); MIC ([2]; read-out: Ss MIC, Streptococcus sanguinis, broth microdilution, 24 h, tested 3.9 to 500 µM): 77.9 µM (≈ 19.5 µg/mL); MIC ([5]; read-out: Sa MIC, Staphylococcus aureus, broth microdilution, 24 h, tested 3.9 to 500 µM): 77.9 µM (≈ 19.5 µg/mL); MIC ([6]; read-out: Sm MIC, Streptococcus mutans, broth microdilution, 24 h, tested 3.9 to 500 µM): 77.9 µM (≈ 19.5 µg/mL); chromatographic logP [8]: 2.7
O=C(/C=C/C=C/c1ccccc1)c1ccc(O)cc1 [Compound 4, (2E,4E)-1-(4-hydroxyphenyl)-5-phenylpenta-2,4-dien-1-one]	312 µM (≈ 78.1 µg/mL)	> 500 µM	77.5 µM	77.9 to 312 µM (≈ 19.5 to 78.1 µg/mL)	77.9 µM (≈ 19.5 µg/mL)	312 µM (≈ 78.1 µg/mL)	below 8%	46.3 to 96.7 µM	–	> 500 µM	MIC [1]: 81.9 µM (≈ 20.5 µg/mL); MIC ([2]; read-out: Ss MIC): 156 µM (≈ 39 µg/mL); chromatographic logP [12]: 2.6; MIC ([5]; read-out: Sa MIC): 77.9 µM (≈ 19.5 µg/mL); MIC ([6]; read-out: Sm MIC): 156 µM (≈ 39 µg/mL); IC50 [13]: 53.1 µM
COc1cccc2c1C(=O)c1c(O)c3c(c(O)c1C2=O)C[C@@](O)(C(=O)CO)C[C@@H]3O[C@H]1C[C@H](N)[C@H](O)[C@H](C)O1 [doxorubicin, reference compound]	–	–	1.8 µM	–	–	–	–	–	0.7 µM	–	–
